Reference: patent US20200157144A1, “ANTIMICROBIAL PEPTIDOMIMETICS” (priority 2017, published 2020)
In brackets after ≈: the same amount, converted by molar mass. Square brackets hold non-standard residues; d marks the D form. Peptide text beside a SMILES is read from it. Bip(4'-Cl) = N[C@@H](Cc1ccc(-c2ccc(Cl)cc2)cc1)C(=O)O; dBip(4'-Cl) = N[C@H](Cc1ccc(-c2ccc(Cl)cc2)cc1)C(=O)O; Bip(4'-Me) = Cc1ccc(-c2ccc(C[C@H](N)C(=O)O)cc2)cc1; Bip = N[C@@H](Cc1ccc(-c2ccccc2)cc1)C(=O)O; dBip = N[C@H](Cc1ccc(-c2ccccc2)cc1)C(=O)O; Phe(4-Br) = N[C@@H](Cc1ccc(Br)cc1)C(=O)O; Phe(4-Cl) = N[C@@H](Cc1ccc(Cl)cc1)C(=O)O; Phe(4-I) = N[C@@H](Cc1ccc(I)cc1)C(=O)O; Phe(4-Me) = Cc1ccc(C[C@H](N)C(=O)O)cc1

Tested on: Mupirocin-resistant MRSA ATCC-BAA-1556
Assay: microbe, parasite or virus in culture
Format: cell-based, Staphylococcus aureus
Details: ATCC-BAA-1556; read-out: MIC
Experimental: The MICs of test compounds were determined using the microdilution method from the Clinical and Laboratory Standards Institute (CLSI) guidelines (Clinical and Laboratory Standards Institute. Methods for dilution antimicrobial susceptibility tests for bacteria that grow aerobically; approved standard—ninth edition. Document M07-A9. Vol. 32 No. 2. Wayne, Pa.: CLSI; 2012). Briefly, bacteria were grown fresh from frozen stock in Mueller Hinton 2 (MH2) agar at 37° C. After an overnight incubation, 5 bacteria colonies were selected to grow in cation-adjusted MH2 broth in a shaking incubator (140 RPM) at 37° C. Cells were grown to an optical density (OD600) of 0.15-0.16 determined using a spectrophotometer (Molecular Devices Spectra Max Plus), which corresponds to ˜1×10^8 CFU/mL. Test compounds were constituted into 4 mM DMSO stock solutions and then subjected to 2-fold serial dilution in a 96-well plate with concentrations ranging from 100 to 0.195 μM in duplicates. […] of microbial culture containing ˜1×10^6 CFU/mL of microbes in the respective broths was introduced into each well containing 50 μL of compound solution. After an overnight incubation at 35° C., (220 RPM), OD600 measurements were conducted using the microplate spectrophotometer. The MIC was defined as the lowest antibiotic or compound concentration (μM) required to inhibit bacteria growth.
The 11th well was used as the growth control well (medium with bacterial inoculums, no antibacterial) while the 12th well was the sterility control well (medium only).

| SMILES | MIC [µM] |
| --- | --- |
| N=C(N)NCCCCNC(=O)[C@H](Cc1ccc(-c2ccccc2)cc1)NC(=O)[C@H](CCCNC(=N)N)NC(=O)[C@@H](N)Cc1ccc(-c2ccccc2)cc1 [Compound 1] | 12.5 (≈ 9.16 µg/mL) |
| N=C(N)NCCC[C@H](NC(=O)[C@H](Cc1ccc(-c2ccccc2)cc1)NC(=O)[C@H](CCCNC(=N)N)NC(=O)[C@@H](N)Cc1ccc(-c2ccccc2)cc1)C(N)=O [Compound 3] (H-[Bip]R[Bip]R-NH2) | 12.5 (≈ 9.7 µg/mL) |
| N=C(N)NCCC[C@@H](NC(=O)[C@@H](Cc1ccc(-c2ccccc2)cc1)NC(=O)[C@@H](CCCNC(=N)N)NC(=O)[C@H](N)Cc1ccc(-c2ccccc2)cc1)C(N)=O [Compound 4] (H-[dBip][dR][dBip][dR]-NH2) | 12.5 (≈ 9.7 µg/mL) |
| N=C(N)NCCC[C@H](NC(=O)[C@H](Cc1ccc(-c2ccccc2)cc1)NC(=O)[C@H](CCCNC(=N)N)NC(=O)[C@@H](N)Cc1ccccc1)C(N)=O [Compound 5] (H-FR[Bip]R-NH2) | >100 |
| N=C(N)NCCC[C@H](NC(=O)[C@H](Cc1ccccc1)NC(=O)[C@H](CCCNC(=N)N)NC(=O)[C@@H](N)Cc1ccc(-c2ccccc2)cc1)C(N)=O [Compound 6] (H-[Bip]RFR-NH2) | >100 |
| Cc1ccc(C[C@H](N)C(=O)N[C@@H](CCCNC(=N)N)C(=O)N[C@@H](Cc2ccc(-c3ccccc3)cc2)C(=O)N[C@@H](CCCNC(=N)N)C(N)=O)cc1 [Compound 7] (H-[Phe(4-Me)]R[Bip]R-NH2) | 100 (≈ 71.4 µg/mL) |
| Cc1ccc(C[C@H](NC(=O)[C@H](CCCNC(=N)N)NC(=O)[C@@H](N)Cc2ccc(-c3ccccc3)cc2)C(=O)N[C@@H](CCCNC(=N)N)C(N)=O)cc1 [Compound 8] (H-[Bip]R[Phe(4-Me)]R-NH2) | >100 |
| N=C(N)NCCC[C@H](NC(=O)[C@H](Cc1ccc(-c2ccccc2)cc1)NC(=O)[C@H](CCCNC(=N)N)NC(=O)[C@@H](N)Cc1ccc(Cl)cc1)C(N)=O [Compound 9] (H-[Phe(4-Cl)]R[Bip]R-NH2) | 100 (≈ 73.4 µg/mL) |
| N=C(N)NCCC[C@H](NC(=O)[C@H](Cc1ccc(Cl)cc1)NC(=O)[C@H](CCCNC(=N)N)NC(=O)[C@@H](N)Cc1ccc(-c2ccccc2)cc1)C(N)=O [Compound 10] (H-[Bip]R[Phe(4-Cl)]R-NH2) | 100 (≈ 73.4 µg/mL) |
| N=C(N)NCCC[C@H](NC(=O)[C@H](Cc1ccc(-c2ccccc2)cc1)NC(=O)[C@H](CCCNC(=N)N)NC(=O)[C@@H](N)Cc1ccc(Br)cc1)C(N)=O [Compound 11] (H-[Phe(4-Br)]R[Bip]R-NH2) | 50 (≈ 38.9 µg/mL) |
| N=C(N)NCCC[C@H](NC(=O)[C@H](Cc1ccc(Br)cc1)NC(=O)[C@H](CCCNC(=N)N)NC(=O)[C@@H](N)Cc1ccc(-c2ccccc2)cc1)C(N)=O [Compound 12] (H-[Bip]R[Phe(4-Br)]R-NH2) | 100 (≈ 77.9 µg/mL) |
| N=C(N)NCCC[C@H](NC(=O)[C@H](Cc1ccc(-c2ccccc2)cc1)NC(=O)[C@H](CCCNC(=N)N)NC(=O)[C@@H](N)Cc1ccc(I)cc1)C(N)=O [Compound 13] (H-[Phe(4-I)]R[Bip]R-NH2) | 50 (≈ 41.3 µg/mL) |
| N=C(N)NCCC[C@H](NC(=O)[C@H](Cc1ccc(I)cc1)NC(=O)[C@H](CCCNC(=N)N)NC(=O)[C@@H](N)Cc1ccc(-c2ccccc2)cc1)C(N)=O [Compound 14] (H-[Bip]R[Phe(4-I)]R-NH2) | 100 (≈ 82.6 µg/mL) |
| N=C(N)NCCC[C@H](NC(=O)[C@H](Cc1ccc(-c2ccccc2)cc1)NC(=O)[C@H](CCCNC(=N)N)NC(=O)[C@@H](N)Cc1ccc(-c2ccc(Cl)cc2)cc1)C(N)=O [Compound 15] (H-[Bip(4'-Cl)]R[Bip]R-NH2) | 6.25 (≈ 5.07 µg/mL) |
| N=C(N)NCCC[C@H](NC(=O)[C@H](Cc1ccc(-c2ccc(Cl)cc2)cc1)NC(=O)[C@H](CCCNC(=N)N)NC(=O)[C@@H](N)Cc1ccc(-c2ccccc2)cc1)C(N)=O [Compound 16] (H-[Bip]R[Bip(4'-Cl)]R-NH2) | 6.25 (≈ 5.07 µg/mL) |
| N=C(N)NCCC[C@H](NC(=O)[C@H](Cc1ccc(-c2ccccc2)cc1)NC(=O)[C@H](CCCNC(=N)N)NC(=O)[C@@H](N)Cc1ccc(-c2ccc(Cl)c(Cl)c2)cc1)C(N)=O [Compound 17] | 6.25 (≈ 5.28 µg/mL) |
| N=C(N)NCCC[C@H](NC(=O)[C@H](Cc1ccc(-c2ccc(Cl)c(Cl)c2)cc1)NC(=O)[C@H](CCCNC(=N)N)NC(=O)[C@@H](N)Cc1ccc(-c2ccccc2)cc1)C(N)=O [Compound 18] | 6.25 (≈ 5.28 µg/mL) |
| N=C(N)NCCC[C@H](NC(=O)[C@H](Cc1ccc(-c2ccccc2)cc1)NC(=O)[C@H](CCCNC(=N)N)NC(=O)[C@@H](N)Cc1ccc(-c2ccc(Br)cc2)cc1)C(N)=O [Compound 19] | 6.25 (≈ 5.34 µg/mL) |
| N=C(N)NCCC[C@H](NC(=O)[C@H](Cc1ccc(-c2ccc(Br)cc2)cc1)NC(=O)[C@H](CCCNC(=N)N)NC(=O)[C@@H](N)Cc1ccc(-c2ccccc2)cc1)C(N)=O [Compound 20] | 6.25 (≈ 5.34 µg/mL) |

| SMILES | MIC [µM] |
| --- | --- |
| Cc1ccc(-c2ccc(C[C@H](N)C(=O)N[C@@H](CCCNC(=N)N)C(=O)N[C@@H](Cc3ccc(-c4ccccc4)cc3)C(=O)N[C@@H](CCCNC(=N)N)C(N)=O)cc2)cc1 [Compound 21] (H-[Bip(4'-Me)]R[Bip]R-NH2) | 12.5 (≈ 9.87 µg/mL) |
| Cc1ccc(-c2ccc(C[C@H](NC(=O)[C@H](CCCNC(=N)N)NC(=O)[C@@H](N)Cc3ccc(-c4ccccc4)cc3)C(=O)N[C@@H](CCCNC(=N)N)C(N)=O)cc2)cc1 [Compound 22] (H-[Bip]R[Bip(4'-Me)]R-NH2) | 12.5 (≈ 9.87 µg/mL) |
| CC(C)(C)c1ccc(-c2ccc(C[C@H](N)C(=O)N[C@@H](CCCNC(=N)N)C(=O)N[C@@H](Cc3ccc(-c4ccccc4)cc3)C(=O)N[C@@H](CCCNC(=N)N)C(N)=O)cc2)cc1 [Compound 23] | 12.5 (≈ 10.4 µg/mL) |
| CC(C)(C)c1ccc(-c2ccc(C[C@H](NC(=O)[C@H](CCCNC(=N)N)NC(=O)[C@@H](N)Cc3ccc(-c4ccccc4)cc3)C(=O)N[C@@H](CCCNC(=N)N)C(N)=O)cc2)cc1 [Compound 24] | 12.5 (≈ 10.4 µg/mL) |
| N=C(N)NCCC[C@H](NC(=O)[C@H](Cc1ccc(-c2ccccc2)cc1)NC(=O)[C@H](CCCNC(=N)N)NC(=O)[C@@H](N)Cc1ccc(-c2ccc(-c3ccccc3)cc2)cc1)C(N)=O [Compound 25] | 100 (≈ 85.2 µg/mL) |
| N=C(N)NCCC[C@H](NC(=O)[C@H](Cc1ccc(-c2ccc(-c3ccccc3)cc2)cc1)NC(=O)[C@H](CCCNC(=N)N)NC(=O)[C@@H](N)Cc1ccc(-c2ccccc2)cc1)C(N)=O [Compound 26] | 25 (≈ 21.3 µg/mL) |
| N=C(N)NCCC[C@H](NC(=O)[C@H](Cc1ccc(-c2ccccc2)cc1)NC(=O)[C@H](CCCNC(=N)N)NC(=O)[C@@H](N)Cc1ccc(-c2cccc(Cl)c2)cc1)C(N)=O [Compound 27] | 6.25 (≈ 5.07 µg/mL) |
| N=C(N)NCCC[C@H](NC(=O)[C@H](Cc1ccc(-c2cccc(Cl)c2)cc1)NC(=O)[C@H](CCCNC(=N)N)NC(=O)[C@@H](N)Cc1ccc(-c2ccccc2)cc1)C(N)=O [Compound 28] | 6.25 (≈ 5.07 µg/mL) |
| CC(C)(C)c1cc(-c2ccc(C[C@H](N)C(=O)N[C@@H](CCCNC(=N)N)C(=O)N[C@@H](Cc3ccc(-c4ccccc4)cc3)C(=O)N[C@@H](CCCNC(=N)N)C(N)=O)cc2)cc(C(C)(C)C)c1 [Compound 29] | 50 (≈ 44.4 µg/mL) |
| CC(C)(C)c1cc(-c2ccc(C[C@H](NC(=O)[C@H](CCCNC(=N)N)NC(=O)[C@@H](N)Cc3ccc(-c4ccccc4)cc3)C(=O)N[C@@H](CCCNC(=N)N)C(N)=O)cc2)cc(C(C)(C)C)c1 [Compound 30] | 50 (≈ 44.4 µg/mL) |
| N=C(N)NCCC[C@H](NC(=O)[C@H](Cc1ccc(-c2ccccc2)cc1)NC(=O)[C@H](CCCNC(=N)N)NC(=O)[C@@H](N)Cc1ccc(-c2ccccc2)cc1)C(N)=O [Compound 31] (H-[Bip]R[Bip]R-NH2) | 100 (≈ 77.6 µg/mL) |
| N=C(N)NCCC[C@H](NC(=O)[C@H](Cc1ccc(-c2ccccc2)cc1)NC(=O)[C@H](CCCNC(=N)N)NC(=O)[C@@H](N)Cc1ccc(-c2ccccc2)cc1)C(N)=O [Compound 32] (H-[Bip]R[Bip]R-NH2) | 50 (≈ 38.8 µg/mL) |
| N=C(N)NCCC[C@@H](NC(=O)[C@H](N)Cc1ccc(-c2ccc(Cl)cc2)cc1)C(=O)N[C@H](Cc1ccc(-c2ccc(Cl)cc2)cc1)C(N)=O [Compound 35] | 6.25 (≈ 4.3 µg/mL) |
| N=C(N)NCCC[C@@H](NC(=O)[C@@H](Cc1ccc(-c2ccc(Cl)cc2)cc1)NC(=O)[C@H](N)CCCNC(N)=O)C(N)=O [Compound 36] | >100 |
| N=C(N)NCCC[C@@H](NC(=O)[C@H](N)Cc1ccc(-c2ccc(Cl)cc2)cc1)C(N)=O [Compound 37] | >100 |
| NC(=O)NCCC[C@@H](N)C(=O)N[C@H](Cc1ccc(-c2ccc(Cl)cc2)cc1)C(N)=O [Compound 38] | >100 |
| N=C(N)NCCC[C@@H](N)C(=O)N[C@H](Cc1ccc(-c2ccc(Cl)cc2)cc1)C(=O)N[C@H](CCCNC(=N)N)C(=O)N[C@H](Cc1ccc(-c2ccc(Cl)cc2)cc1)C(=O)N[C@H](CCCNC(=N)N)C(N)=O [Compound 39] (H-[dR][dBip(4'-Cl)][dR][dBip(4'-Cl)][dR]-NH2) | 3.125 (≈ 3.13 µg/mL) |
| N=C(N)NCCC[C@@H](NC(=O)[C@H](N)Cc1ccc(-c2ccc(Cl)cc2)cc1)C(=O)N[C@H](Cc1ccc(-c2ccc(Cl)cc2)cc1)C(=O)N[C@H](CCCNC(=N)N)C(=O)N[C@H](Cc1ccc(-c2ccc(Cl)cc2)cc1)C(N)=O [Compound 40] (H-[dBip(4'-Cl)][dR][dBip(4'-Cl)][dR][dBip(4'-Cl)]-NH2) | >100 |
| N=C(N)NCCCCNC(=O)[C@H](Cc1ccc(-c2ccc(Cl)cc2)cc1)NC(=O)[C@H](CCCNC(=N)N)NC(=O)[C@@H](N)Cc1ccc(-c2ccc(Cl)cc2)cc1 [Compound 41] | 6.25 (≈ 5.01 µg/mL) |
